Test results taken from patent publication US9593305B2, “Differentiation of pluripotent stem cells” (Janssen Biotech, Inc., priority 2008, dated 2017).

System: H1 human embryonic stem cells
Assay: Step-wise differentiation, high content analysis of SOX17, cell number, insulin, glucagon (Example 16)
Type: cell-based
Procedure: The assay was initiated by aspirating the culture medium from each well and adding back an aliquot (0.5 ml) of test medium. Test conditions for the first step of differentiation were conducted over a three-day period, feeding daily by aspirating and replacing the medium from each well with fresh test medium. On the first day of assay, 100 ng/ml activin A (PeproTech; Cat #120-14) or 100 ng/ml GDF-8 (R&D Systems, Cat #788-G8) was added to respective assay wells where each growth factor was diluted into RPMI-1640 medium (Invitrogen; Cat #: 22400) with 2% Albumin Bovine Fraction V, Fatty Acid Free (FAF BSA) (Proliant Inc. Cat #: SKU 68700), and 20 ng/ml Wnt3a (R&D Systems; Cat #1324-WN/CF). On the second day of assay, 100 ng/ml activin A or 100 ng/ml GDF-8 was diluted into RPMI-1640 medium supplemented with 2% FAF BSA without Wnt3a. In some test samples using GDF-8, Wnt3a was replaced with a small molecule compound, added only on the first day of definitive endoderm differentiation. These small molecules included Compound 19 (2.5 μM in assay), Compound 202 (2.5 μM in assay), Compound 40 (2.5 μM in assay), or a commercially available GSK3 inhibitor BIO (0.5 μM in assay) (EMD Chemicals, Inc.; Cat #361550). At the conclusion of the first step of differentiation, cells from some wells were harvested for flow cytometry analysis to evaluate levels of CXCR4, a marker of definitive endoderm formation. Additional wells were harvested for RT-PCR analysis to measure other markers of differentiation.
Step 5 of the differentiation protocol was carried out over seven days in DMEM-high glucose with 0.1% Albumax, 0.5× Insulin-Transferrin-Selenium, and 1 μM Alk 5 inhibitor. […]
Imaging was performed using an IN Cell Analyzer 1000 (GE Healthcare) utilizing the 51008bs dichroic for cells stained with Hoechst 33342 and Alexa Fluor 488. […] Segmentation for the nuclei was determined based on gray-scale levels (baseline range 100-300) and nuclear size. Averages and standard deviations were calculated for each replicate data set. […]

SMILES | relative cell numbers recovered through differentiation step 5 (GDF-8 with compound in step 1, relative to activin A and Wnt3a) | cell numbers and SOX17 expression after step 1 (100 ng/ml GDF-8 with 2.5 μM compound on first day)
CN1CCC(=O)NCCCc2cncc(c2)-c2ncnc(n2)Nc2cccc(c2)C1 [Compound 19, 14-Methyl-3,5,7,14,18,24,28-heptaazatetracyclo[20.3.1.1˜2,6˜0.1˜8,12˜]octacosa-1(26), 2(28), 3,5,8(27), 9,11,22,24-nonaen-17-one] | decrease in cell number | –
C=CCN1CC(=O)NCCCc2cncc(c2)-c2ncnc(n2)Nc2cccc(c2)C1 [Compound 40, 14-Prop-2-en-1-yl-3,5,7,14,17,23,27-heptaazatetracyclo[19.3.1.1˜2.6˜0.1˜8,12˜]heptacosa-1(25), 2(27), 3,5,8(26), 9,11,21,23-nonaen-16-one] | – | cell numbers in culture and SOX17 expression equivalent to treatment with activin A and Wnt3a
